From patent US10912819B2, “Neuroprotective peptides derived from activity-dependent neuroprotective protein for treatment of neurological diseases” (priority 2016, dated 2021)
“Also recorded” adds a separate entry of the source.

Legend:
[1] = tested on: Adnp^+/− mice; experiment: Grip strength test; format: in vivo; conditions: male mice, treatment from 2 months of age, 0.5 μg NAP/mouse/day intranasal in DD, 5 weeks; p<0.05
Method: The grip strength test measures forelimbs muscle strength using the UgoBasile 47200-Grip-Strength Meter. Each animal was tested five times and the peak force of each mouse was recorded. Data are expressed as mean±SEM.

[2] = tested on: Akap6; experiment: Hippocampal Akap6 mRNA expression, quantitative real-time PCR; format: in vivo; conditions: 7.5-month-old mice treated with NAP/CB, normalized to Hprt
Method: In females, NAP regulates genes deregulated with ADNP mutation in the hippocampus. […] Sexual dichotomy determined by t-test analysis was also observed for Akap6 and Chl1 expression between Adnp^+/− males and females (#p<0.05, ##p<0.01, ###p<0.001).
(§1) Quantitative reverse transcription real time polymerase chain reaction (RT-PCR) was performed as before (18, 37).

[3] = tested on: microtubule end binding protein 1 and 3 (EB1 and EB3) comets in living N1E-115; experiment: Live imaging of EB1/EB3 comets in N1E-115 cells carrying ADNP mutations; format: cell-based; conditions: p.Tyr719*/p.Lys404Valfs*31 ADNP, 4 hours NAP treatment (10^−12M)
Description: FIG. 10: NAP ameliorates cytoskeletal deficiencies associated with ADNP mutations. Human ADNP mutated cDNA was cloned into plasmids as described (Ivashko-Pachima et al., Molecular Psychiatry 2017, in press). The mutations cloned included the p.Tyr719* ADNP, the most common ADNP mutation (Gozes et al., Frontiers in Endocrinology, under revisions) and the p.Lys408Valfs31*, the first de novo ADNP mutation identified (reviewed in Gozes et al., J Mol Neurosci (2015) 56:751-757.
The effects of ADNP carried p.Tyr719*/p.Lys404Valfs*31 mutation on microtubule end binding protein 1 and 3 (EB1 and EB3) comets in living N1E-115 is shown. For experimental details see, Ivashko-Pachima et al., Molecular Psychiatry 2017, in press. (A) Live imaging of N1E-115 cells. EB1-RFP (red) co-transfected with full ADNP/p.Tyr719*/p.Lys404Valfs*31 carrying plasmids before and after 4 hours NAP treatment (10^−12M) (panel A1). […] (B-C) EB1 Quantification of average track length, comet speed, comet length and number of comets/100 μm^2 (total number of comets: ADNP (full) before treatment n=2639/1 I cells, ADNP (full) after NAP treatment n=3107/15cells, ADNP p.Tyr719* before treatment n=1910/14cells, ADNP p.Tyr719* after NAP treatment n=3990/16cells, ADNP p.Lys404Valfs*31 before treatment n=1082/6cells, ADNP p.Lys404Valfs*31 after NAP treatment n=694/5cells). […]

[4] = tested on: Adnp^+/− mice; experiment: Hanging wire test; format: in vivo
Description: The hanging wire test measures the strength of the mouse paws by using the latency to fall off from an inverted cage lid (placed 50 cm above the surface) onto a soft bedding (maximum time 120 sec). Data are expressed as mean±SEM.

[5] = tested on: Adnp^+/+ and Adnp^+/− male mice; experiment: Open field test; format: in vivo; conditions: 15 min
Method: FIG. 5. […] Furthermore, NAP ameliorates motor dysfunction in Adnp^+/− mice. Each male mouse (n=9-12 per group) was placed in the middle of the field and allowed to freely explore the arena for 15 min. The duration in center zone (A), and the total path traveled (B) were measured by the Ethovision XT video tracking system (Noldus Inc. Leesburg, Va.).
Experiments performed as we described in Malishkevich et al., 2015 (37) and Amram et al., Mol Psychiatry. 2016 October; 21(10):1467-76 (7). 3-6 month-old male mice were used, drug application (0.5 μg/5 μl/mouse) was once daily, for one month and then behavioral assays were initiated together with drug application. In experiments with the vehicle termed DD (NAP-benzalkonium), drug application was at 2 months of age and continued as above. Open field experiments (16, 17) and elevated plus maze evaluations (18) were carried out as before.

[6] = tested on: Adnp^+/− mice; experiment: MRI diffusion tensor imaging of chronically treated brains; format: in vivo; conditions: NAP in CB vs CB-treated Adnp^+/− mice
Method: MRI was performed on a 7.0 T/30 spectrometer (Bruker, Rheinstetten, Germany) using a volume coil for excitation and a rat quadrature coil for acquisition. The MRI protocols included coronal T2 and diffusion tensor imaging (DTI). T2 weighted images obtained with RARE sequence, with repetition time=3000 msec and echo time=49 msec, RARE factor 8, 4 averages, field of view of 2×2 cm, matrix dimensions of 256×256 and 24 slices of 0.5 mm thickness with no gap. The 24 coronal sections were used for volumetric analysis of the whole brain, Lateral ventricle and Hippocampus. DTI was obtained using a diffusion-weighted (DW) spin-echo echo-planar-imaging (EPI) pulse sequence with the following parameters: TR/TE=4000/25 ms, Δ/δ=10/4.5 ms, 4 EPI segments and 32 non-collinear gradient directions with a single b value (1000 sec/mm^2) and two images with b value of 0 sec/mm2 (referred to as b0). Geometrical parameters were: 24 slices of 0.5 mm thickness, matrix size of 128×128 and FOV of 20 mm^2). The imaging protocol was repeated 3 times for signal averaging and to compensate for acquisition where significant head motion was observed. Image analysis included DTI analysis of the DW-EPI images to produce the FA, radial, and axial diffusivity indexed maps.

[7] = tested on: Akap6; experiment: Akap6 tongue gene expression, quantitative real-time PCR; format: in vivo, mice
Method: Tongue total RNA was extracted from 4-month-old mice (treated with NAP/DD as above) and analyzed for Akap6, Hprt, and Gapdh mRNA expression by quantitative real-time PCR (n=6-14 replicates per experimental group). HPRT and Gapdh served as normalizing transcripts.
as §1

[8] = 5-month-old mice, 0.5 μg NAP/mouse/day intranasal in CB, 3 weeks, p<0.05
[9] = tongue, 4-month-old mice, NAP/DD, p<0.05

## CC[C@H](C)[C@H](NC(=O)[C@H](CO)NC(=O)[C@@H](NC(=O)[C@@H]1CCCN1C(=O)[C@H](C)NC(=O)[C@@H](N)CC(N)=O)C(C)C)C(=O)N1CCC[C@H]1C(=O)N[C@@H](CCC(N)=O)C(=O)O [NAP]
[1]
  forelimbs muscle strength (grip force): significantly improving it
[2]
  hippocampal Akap6 expression, females, NAP-treated vs vehicle-treated Adnp^+/− mice: ameliorated; also recorded: significantly increased expression
[3]
  changes in microtubule dynamics (EB1/EB3 comets) caused by ADNP mutations: ameliorated, in part
[4]; 2-month-old mice, 0.5 μg NAP/mouse/day intranasal in DD, 5 weeks, p<0.01
  latency to fall, males: improved
[4]; [8]
  latency to fall, females: significant difference
  latency to fall, males: significant difference
[5]; male mice of both genotypes, NAP-treated vs vehicle-treated p<0.05
  duration in center zone: staying longer time at the center of the field
[5]; male mice
  total path traveled (slight hyperactivity of Adnp^+/− mice): not affecting the slight hyperactivity
[6]; hippocampal area −1.84 mm from Bregma
  hippocampal mean diffusivity (MD): although insignificantly, was reduced
[6]; hippocampal area −2.34 mm from Bregma, p<0.05
  hippocampal fractional anisotropy (FA): significantly reduced
[7]; FIG. 8 C,D
  dysregulated Akap6 expression in the tongue: amelioration
[7]; tongue, 4-month-old mice, NAP/DD
  Akap6 normalized to Gapdh: vehicle Adnp^+/− female mice compared to NAP-treated Adnp^+/− mice: significantly increased expression
[7]; [9]
  Akap6 normalized to Gapdh: NAP-treated Adnp^+/− male mice compared to vehicle-treated: significantly increased
  Akap6 normalized to Hprt: vehicle Adnp^+/− male mice compared to NAP-treated Adnp^+/− mice: significantly decreased
